Source: patent US20020032183A1, “Use of (di-substituted-phenyl)-pyrimidinyl-imidazole derivatives as JNK-inhibitors” (priority 2000, published 2002)
Counter-ions that a name gives are not always drawn.

B1: NGF: NGF at 1 ng/ml, comparison group in the sympathetic neuronal survival assay; these neurons are NGF dependent (protein, UniProt P01139 122-241, looked up)
Beta-nerve growth factor: SSTHPVFHMGEFSVCDSVSVWVGDKTTATDIKGKEVTVLAEVNINNSVFRQYFFETKCRASNPVESGCRGIDSKHWNSYCTTTHTFVKALTTDEKQAAWRFIRIDTACVCVLSRKATRRG

Columns and labels:
JNK3α1 = molecular target: T1, JNK3α1 (Homo sapiens, UniProt P53779); assay: Biochemical determination of inhibition of JNK3α1; conditions: truncated JNK3α1, 1 μM ATP, 0.5 μM GST-ATF2, 30° C., 30 min
T1 construct: Truncated JNK3α1 (amino acids 39-422) was expressed in E. coli; made in house; host or cells: E. coli
Experimental: Activation reactions were incubated at 30° C. for 2 h.
Enzyme inhibition studies were performed at 30° C. for 30 min with 0.5 μM GST-ATF2, 1 μM ATP, 1 nM activated JNK3α1 and compound ranging from 30 pM to 100 μM. Reactions were carried out in 100 μL volumes containing the final concentrations of the following: 25 mM HEPES (Sigma) pH 7.4; 10 mM MgCl2 (Sigma); 2 mM DTT (Sigma); 20 mM β-glycerophosphate (Sigma); 0.1 mM Na3VO4 (Sigma); 2 μCi [γ-^33P]ATP (2000 Ci/mmol; 1 Ci=37 GBq) (Amersham Pharmacia Biotech, Piscataway, N.J.). Reactions were stopped with 100 μL 100 mM EDTA/15 mM sodium pyrophosphate. Immobilon™-P 96-well plates (Millipore MAIPNOB™ 10, available from the Millipore Corp., Bedford, Mass.) were pretreated with 100 μL methanol, followed by 100 μL 15 mM sodium pyrophosphate. Fifty μL of the stopped reaction was spotted in triplicate on the Immobilon™-P 96-well plate. The samples were vacuum-filtered and washed three times each with 100 μL 75 mM H3PO4 to remove unincorporated [γ-^33P]ATP. After the third H3PO4 wash and a final filtration step to remove H3PO4, 50 μL of Microscint™-20 (Packard BioScience Ltd., Pangbourne, Berkshire, U.K.) was added to each well and samples were analyzed on a Packard Topcount™ liquid scintillation counter. IC50 values were determined by fitting the data to the equation for a four parameter logistic.

[1] = tested on: Rat superior cervical ganglion neurons; assay: Sympathetic neuronal survival assay (no NGF exposure; GAP-43 ELISA and cell counts); format: cell-based; conditions: NGF 1 ng/ml
Experimental: Activation of c-jun-N-terminal kinase (JNK) has been implicated in apoptosis in sympathetic neurons. An inhibitor of JNK, Example 2, was tested for neuroprotective effects in two models of sympathetic neuronal cell death.
In the first model, ganglia were dissociated and plated directly into culture plates in the presence of compound for 48 hours, then fixed and survival assayed using an ELISA for GAP-43. This model will hereafter be referred to as the ‘survival assay’.
Ganglia were enzymatically dissociated using 0.25% trypsin for 45 minutes. The trypsin was then inhibited using Dulbecco's MEM (DMEM) supplemented with 10% fetal bovine serum, and the cells mechanically triturated using a pipette tip to form a single cell suspension. Neurons in the suspension were counted using a haemocytometer, and plated at a density of 3000-5000 neurons per well in poly-D-lysine and laminin coated 96 well tissue culture clusters in DMEM supplemented with B27 serum substitute. Cultures were then incubated at 37° C./5% CO2. One hour following plating, cultures were either treated with NGF 25 ng/ml or with L-790,984 at a range of concentrations for the NGF deprivation and survival assays respectively.
Cultures for the NGF deprivation assay were returned to the incubator for 4 days. Following this, the medium was aspirated, plates washed once with DMEM/B27, and the cultures treated with Example 2 at concentrations ranging from 1 nM to 10 μM, together with an anti-NGF blocking antibody at 250 ng/ml. Cultures were then returned to the incubator for a further 72 hours prior to fixation and survival quantification. Cultures treated with Example 2 immediately for the survival assay were returned to the incubator for 48 hours; cultures were then fixed and survival quantified using the GAP-43 ELISA.
Cultures were fixed by the addition of an equal volume 4% paraformaldehyde to each well for 10 minutes; this was then aspirated, and replaced by a further volume of 4% paraformaldehyde for a further 20 minutes at room temperature. Plates were then washed three times with PBS/0.3% TX100, and non-specific binding sites blocked by the addition of 5% normal horse serum (NHS) in PBS/0.3% TX100. Plates were incubated at room temperature for one hour, then the blocking serum was aspirated without washing and replaced with primary antibody. The primary antibody used was a mouse monoclonal antibody raised against Growth Associated Protein 43 (Sigma), prepared at a dilution of 1:500 in PBS/0.3% TX100/5% NHS. Primary antibody was added to all sample wells, with four control wells returned to blocking serum to act as minus primary control. Plates were then refrigerated overnight at 4° C. The next day, plates were washed three times with PBS/0.3 TX100 and secondary antibody added. The secondary antibody used was peroxidase conjugated sheep anti-mouse IgG, and was added at a dilution of 1:1000 in PBS/0.3% TX100/5% NHS. Plates were incubated for 1 hour at room temperature, then washed three times with PBS/0.3% TX100, and K-Blue insoluble peroxidase substrate added for 30 minutes at room temperature. The optical density of the plates was then read at 650 nm, and the survival of neurons calculated and expressed as percentage of the control response.
Cell counts were performed on one sample plate for each model of sympathetic neuronal cell death, by the addition of a tertiary antibody to the plate, followed by avidin-biotin complex and an insoluble peroxidase substrate. Following quantification of optical density, plates were washed three times in PBS/0.3% TX100, and non-specific sites blocked using PBS/0.3% TX100/5% normal rabbit serum (“NRS”). Plates were incubated for one hour at room temperature, then the blocking serum was aspirated and replaced with biotinylated rabbit anti-sheep IgG at a dilution of 1:500 in PBS/0.3% TX10O/5% NRS. […]

T1 sequence (P53779 39-422 isoform P53779-2): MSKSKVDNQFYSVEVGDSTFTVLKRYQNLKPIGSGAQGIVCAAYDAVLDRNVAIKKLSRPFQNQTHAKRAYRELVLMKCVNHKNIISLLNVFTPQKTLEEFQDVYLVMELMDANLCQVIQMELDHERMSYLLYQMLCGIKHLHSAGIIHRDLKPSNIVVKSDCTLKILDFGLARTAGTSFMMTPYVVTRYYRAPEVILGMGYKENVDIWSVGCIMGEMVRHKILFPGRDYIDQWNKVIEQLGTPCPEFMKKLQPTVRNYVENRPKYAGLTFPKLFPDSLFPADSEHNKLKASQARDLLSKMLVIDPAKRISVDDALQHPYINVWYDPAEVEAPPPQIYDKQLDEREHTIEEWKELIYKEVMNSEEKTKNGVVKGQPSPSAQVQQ

Molecule	IC50 (JNK3α1)	Survival, ELISA Data Mean ([1]; GAP-43 ELISA)	Survival, Cell Counts Mean ([1]; immunostained neurons per well)
Clc1ccc(-c2nc(C3CCNCC3)n(CC3CC3)c2-c2ccnc(NC3CC3)n2)cc1Cl [Example 7, Cyclopropyl-{4-[3-cyclopropylmethyl-5-(3,4-dichlorophenyl)-2-piperidin-4-yl-3H-imidazol-4-yl]-pyrimidin-2-yl}amine bis trifluoroacetic acid salt]	4 nM	–	–
CCCn1c(C2CCNCC2)nc(-c2ccc(Cl)c(Cl)c2)c1-c1ccnc(NC2CC2)n1 [Example 1, Cyclopropyl-{4-[5-(3,4-dichlorophenyl)-2-piperidin-4-yl-3-propyl-3H-imidazol-4-yl]-pyrimidin-2-yl}amine]	8 nM	–	–
B1	–	618.55	587.00
